Structures are written as SMILES.

With `O=C(O)C[C@H]1CC[C@H](c2ccc(C(=O)Nc3nnc(Cc4cc(F)cc(F)c4)s3)cc2)CC1` [Compound 78, trans-(4-{4-[5-(3,5-difluorobenzyl)[1,3,4]thiadiazol-2-ylcarbamoyl]phenyl}cyclohexyl)-acetic acid], the melting point came out at 294 °C.
Molecule `O=C(O)C[C@H]1CC[C@H](c2ccc(C(=O)Nc3nnc(CC4CCC(O)CC4)s3)cc2)CC1` (stereo partly drawn) [Compound 79, trans-(4-{4-[5-(4-hydroxycyclohexylmethyl)[1,3,4]thiadiazol-2-ylcarbamoyl]phenyl}-cyclohexyl)acetic acid] gave a melting point of more than 250 °C.
Under `O=C(O)CC1CCC(c2ccc(C(=O)Nc3nnc(CCCc4ccc(F)cc4)s3)cc2)CC1` (centres unmarked) [Compound 23, [4-(4-{5-[3-(4-fluorophenyl)propyl][1,3,4]thiadiazol-2-ylcarbamoyl}phenyl)cyclohexyl]-acetic acid] stands 229 °C; under `O=C(C[C@H]1CC[C@H](c2ccc(C(=O)Nc3nnc(Cc4ccccc4)s3)cc2)CC1)NCC1COCCO1` (stereo partly drawn) [Compound 93, trans-N-(5-benzyl[1,3,4]thiadiazol-2-yl)-4-(4-{[([1,4]dioxan-2-ylmethyl)carbamoyl]-methyl}cyclohexyl)benzamide], 281 °C.
In the case of `O=C(Nc1nncs1)c1ccc(O[C@H]2CC[C@@H](C(=O)O)CC2)cc1` [Compound 61, cis-4-[4-([1,3,4]thiadiazol-2-ylcarbamoyl)phenoxy]cyclohexanecarboxylic acid] it was 277 °C; in that of `O=C(O)CC1CCC(c2ccc(C(=O)Nc3nnc(COc4ccccc4)s3)cc2)CC1` (centres unmarked) [Compound 22, {4-[4-(5-phenoxymethyl[1,3,4]thiadiazol-2-ylcarbamoyl)phenyl]cyclohexyl}acetic acid], 261 °C.
`O=C(O)C[C@H]1CC[C@H](c2ccc(C(=O)Nc3nnc(C[S+]([O-])Cc4ccccc4)s3)cc2)CC1` (stereo partly drawn) [Compound 95, trans-{4-[4-(5-phenylmethanesulfinylmethyl[1.3.4]thiadiazol-2-ylcarbamoyl)phenyl]cyclohexyl}acetic acid]: the melting point is 241 °C.
Molecule `O=C(O)C[C@H]1CC[C@H](c2ccc(C(=O)Nc3nnc(CCC(O)c4ccccc4)s3)cc2)CC1` (some centres unmarked) [Compound 84, (4-{4-[5-(3-hydroxy-3-phenylpropyl)[1.3.4]thiadiazol-2-ylcarbamoyl]-phenyl}cyclohexyl)acetic acid] came in with a melting point of 239 to 242 °C.
Under `O=C(O)CC1CCC(c2ccc(C(=O)Nc3nnc(CC4CCCC4)s3)cc2)CC1` (centres unmarked) [Compound 17, {4-[4-(5-cyclopentylmethyl[1,3,4]thiadiazol-2-ylcarbamoyl)phenyl]cyclohexyl}acetic acid] stands 268 °C.
In the case of `O=C(O)C[C@H]1CC[C@H](c2ccc(C(=O)Nc3nnc(N4CCOCC4)s3)cc2)CC1` [Compound 49, trans-{4-[4-(5-morpholin-4-yl[1,3,4]thiadiazol-2-ylcarbamoyl)phenyl]cyclohexyl}acetic acid] it was more than 250 °C; in that of `O=C(O)CC1CCC(c2ccc(C(=O)Nc3nnc(C4CCCC4)s3)cc2)CC1` (centres unmarked) [Compound 16, {4-[4-(5-cyclopentyl[1,3,4]thiadiazol-2-ylcarbamoyl)phenyl]cyclohexyl}acetic acid], 274 °C; in that of `O=C(Nc1nnc(Cc2ccccc2)s1)c1ccc(C2CCC3(CC2)CC3C(=O)O)cc1` (centres unmarked) [Compound 43, 6-[4-(5-benzyl[1.3.4]thiadiazol-2-ylcarbamoyl)phenyl]spiro[2.5]-octane-1-carboxylic acid], 255 °C.
In the case of `O=C(CCc1nnc(NC(=O)c2ccc(O[C@H]3CC[C@@H](C(=O)O)CC3)cc2)s1)c1ccccc1` [Compound 102, cis-4-{4-[5-(3-oxo-3-phenylpropyl)[1,3,4]thiadiazol-2-ylcarbamoyl]phenoxy}cyclohexanecarboxylic acid] it was 220 to 260 °C; in that of `O=C(Nc1nnc(CCC2CCCC2)s1)c1ccc(O[C@H]2CC[C@@H](C(=O)O)CC2)cc1` [Compound 57, cis-4-{4-[5-(2-cyclopentylethyl)[1,3,4]thiadiazol-2-ylcarbamoyl]phenoxy}cyclohexanecarboxylic acid], 270 °C.
For the molecule `CC(C)Cc1nnc(NC(=O)c2ccc(C3CCC(CC(=O)O)CC3)cc2)s1` (centres unmarked) [Compound 19, {4-[4-(5-isobutyl[1,3,4]thiadiazol-2-ylcarbamoyl)phenyl]cyclohexyl}acetic acid], the melting point is 263 °C.
In the case of `O=C(Nc1nnc(COCC2CCCO2)s1)c1ccc(O[C@H]2CC[C@H](C(=O)O)CC2)cc1` (stereo partly drawn) [Compound 82, trans-4-{4-[5-(tetrahydrofuran-2-ylmethoxymethyl)[1,3,4]thiadiazol-2-ylcarbamoyl]-phenoxy}cyclohexanecarboxylic acid] it was 217 to 223 °C; in that of `O=C(O)C[C@H]1CC[C@H](c2ccc(C(=O)Nc3nnc([C@H]4C[C@@H](c5ccccc5)C4)s3)cc2)CC1` [Compound 75, trans-(4-{4-[5-(3-phenylcyclobutyl)[1,3,4]thiadiazol-2-ylcarbamoyl]phenyl}cyclohexyl)acetic acid], 258 °C.
In the case of `O=C(O)C[C@H]1CC[C@H](Oc2ccc(C(=O)Nc3nnc(Cc4ccccc4)s3)cc2)CC1` [Compound 81, trans-{4-[4-(5-benzyl[1,3,4]thiadiazol-2-ylcarbamoyl)phenoxy]cyclohexyl}acetic acid] it was 230 to 250 °C; in that of `O=C(O)C[C@H]1CC[C@H](c2ccc(C(=O)Nc3nnc(CSCc4ccccc4)s3)cc2)CC1` [Compound 96, trans-{4-[4-(5-benzylsulfanylmethyl[1,3,4]thiadiazol-2-ylcarbamoyl)phenyl]cyclohexyl}-acetic acid], 234 °C.
Under `O=C(O)C[C@H]1CC[C@H](c2ccc(C(=O)Nc3nnc(NC(=O)Cc4ccccc4)s3)cc2)CC1` [Compound 76, {4-[4-(5-phenylacetylamino[1,3,4]thiadiazol-2-ylcarbamoyl)phenyl]cyclohexyl}acetic acid] stands 291 °C; under `CC(C)(C)c1nnc(NC(=O)c2ccc(C3CCC(CC(=O)O)CC3)cc2)s1` (centres unmarked) [Compound 14, {4-[4-(5-tert-butyl[1,3,4]thiadiazol-2-ylcarbamoyl)phenyl]cyclohexyl}acetic acid], 298 °C.
On to `O=C(Nc1nnc(-c2cccc(Cl)c2)s1)c1ccc([C@H]2CC[C@H]([C@H]3C[C@@H]3C(=O)O)CC2)cc1` [Compound 85, trans-(1S,2R)-2-(4-{4-[5-(3-chlorophenyl)[1,3,4]thiadiazol-2-ylcarbamoyl]phenyl}cyclohexyl)cyclopropanecarboxylic acid], for which the melting point was more than 250 °C.
The molecule `O=C(O)C[C@H]1CC[C@H](c2ccc(C(=O)Nc3nnc(CCC(=O)c4ccccc4)s3)cc2)CC1` [Compound 83, trans-(4-{4-[5-(3-oxo-3-phenylpropyl)[1,3,4]thiadiazol-2-ylcarbamoyl]phenyl}cyclohexyl)acetic acid] gave a melting point of 240 to 268 °C.
Turning to `O=C(O)C[C@H]1CC[C@H](c2ccc(C(=O)Nc3nnc(NC4CCCC4)s3)cc2)CC1` [Compound 92, trans-{4-[4-(5-cyclopentylamino[1,3,4]thiadiazol-2-ylcarbamoyl)phenyl]cyclohexyl}-acetic acid], the melting point amounted to 335 °C.
Under `O=C(O)CC1CCC(c2ccc(C(=O)Nc3nnc(COc4ccc(F)cc4)s3)cc2)CC1` (centres unmarked) [Compound 24, (4-{4-[5-(4-fluorophenoxymethyl)[1,3,4]thiadiazol-2-ylcarbamoyl]phenyl}cyclohexyl)-acetic acid] stands 275 °C.
`O=C(O)C[C@H]1CC[C@H](c2ccc(C(=O)Nc3nnc(CCN4CCOCC4)s3)cc2)CC1` [Compound 48, trans-(4-{4-[5-(2-morpholin-4-ylethyl)[1,3,4]thiadiazol-2-ylcarbamoyl]phenyl}cyclohexyl)acetic acid] had a melting point of 213 °C.
In the case of `O=C(O)C=C1CCC(c2ccc(C(=O)Nc3nnc(Cc4ccccc4)s3)cc2)CC1` (centres unmarked) [Compound 42, {4-[4-(5-benzyl[1,3,4]thiadiazol-2-ylcarbamoyl)phenyl]cyclohexylidene}acetic acid] it was 255 °C.
As for `O=C(O)COC1CCC(c2ccc(C(=O)Nc3nnc(Cc4ccccc4)s3)cc2)CC1` (stereo not drawn) [Compound 46, trans-{4-[4-(5-benzyl[1.3.4]thiadiazol-2-ylcarbamoyl)phenyl]cyclohexyloxy}acetic acid], the melting point is 250 to 255 °C.
Under `O=C(O)C[C@H]1CC[C@H](c2ccc(C(=O)Nc3nnc(C4CC(c5ccccc5)C4)s3)cc2)CC1` (stereo partly drawn) [Compound 97, trans-(4-{4-[5-(3-phenylcyclobutyl)[1,3,4]thiadiazol-2-ylcarbamoyl]phenyl}cyclohexyl)-acetic acid] stands 247 °C.

For orientation: melting point means the temperature, or range, at which the solid turns liquid.

(Values after patent US8546391B2, “Thiadiazole and oxadiazole derivatives, preparation thereof and therapeutic use thereof” (Sanofi, priority 2009, dated 2013).)
